# According to patent US11312712B2, “Azabenzimidazoles and their use as AMPA receptor modulators” (Janssen Pharmaceutica NV, priority 2015, dated 2022):
# Target: GluA1o-γ8 (GRIA1o-CACNG8 fusion construct) (Homo sapiens (Human), UniProt P42261+Q8WXS5)
# Assay: Calcium flux assay (FLIPR), inhibition of TARP γ8 dependent AMPA receptor activity
# Type: cell-based
# Details: GluA1o-γ8 (GRIA1o-CACNG8 fusion) in HEK293 cells, calcium flux after 15 μM glutamate
# Source text: This assay was used to test compounds for their ability to inhibit TARP γ8 dependent AMPA receptor activity. The AMPA receptor is a non-selective cation channel activated by glutamate. Ionotropic glutamate receptors normally desensitize too rapidly to allow detectable calcium influx in a FLIPR assay (Strange et al. (2006). “Functional characterisation of homomeric ionotropic glutamate receptors GluR1-GluR6 in a fluorescence-based high throughput screening assay.” Comb Chem High Throughput Screen 9(2): 147-158). But, this desensitization is incomplete, and a substantial steady-state current remains in the sustained presence of glutamate (Cho et al. (2007). “Two families of TARP isoforms that have distinct effects on the kinetic properties of AMPA receptors and synaptic currents.” Neuron 55(6): 890-904).
# An in vitro assay was used to determine the potency of test compounds as inhibitors of the glutamate response of the channel formed by GluA1o-γ8. To ensure a 1:1 stoichiometry of GluA1o and γ8 subunits in the expressed channel, a fusion of the cDNAs for GRIA1o and CACNG8 was used. Following Shi et al (2009) “The stoichiometry of AMPA receptors and TARPs varies by neuronal cell type.” Neuron 62(5): 633-640), the C-terminus of the cDNA for GRIA1o was fused to the N-terminus of the cDNA for γ8. The linker sequence was QQQQQQQQQQEFAT. Channels expressed with this construct appear to have similar properties to channels formed by co-expression of GRIA1o with an excess of CACNG8 (Shi et al. 2009). A clonal cell line in HEK293 cells stably expressing this construct, with a geneticin selection marker, was generated for use in this assay.
# Cell expressing the GRIA1o-CACNG8 fusion construct were grown in a monolayer in 96- or 384-well microtiter plates. They were washed with assay buffer (135 mM NaCl, 4 mM KCl, 3 mM CaCl2, 1 mM MgCl2, 5 mM glucose, 10 mM HEPES, pH 7.4, 300 mOs) using a Biotek EL405 plate washer. The cells were then loaded with a calcium-sensitive dye (Calcium-5 or Calcium-6, Molecular Devices) and the test compounds at a range of concentrations. Calcium flux following the addition of 15 μM glutamate was monitored using a Molecular Devices FLIPR Tetra. The fluorescence in each well was normalized to the fluorescence of negative and positive control wells. The negative control wells had no added compounds, and the positive control wells had been incubated with 10 μM CP465022 (a non-subtype-selective AMPA receptor antagonist) (Lazzaro et al. (2002). “Functional characterization of CP-465,022, a selective, noncompetitive AMPA receptor antagonist.” Neuropharmacology 42(2): 143-153). The responses to glutamate as functions of the test compound concentrations were fitted to a four-parameter logistic function. The fitted parameter corresponding to the midpoint was taken to be the potency of inhibition of the compound. The data in Table 4 below illustrates the observed potentcy for the compounds described herein. pIC50 refers to the negative log of the IC50 in molar.
# GluA1o-γ8 (GRIA1o-CACNG8 fusion construct), sequence (P42261 other isoform, or with tags, fused parts or gaps): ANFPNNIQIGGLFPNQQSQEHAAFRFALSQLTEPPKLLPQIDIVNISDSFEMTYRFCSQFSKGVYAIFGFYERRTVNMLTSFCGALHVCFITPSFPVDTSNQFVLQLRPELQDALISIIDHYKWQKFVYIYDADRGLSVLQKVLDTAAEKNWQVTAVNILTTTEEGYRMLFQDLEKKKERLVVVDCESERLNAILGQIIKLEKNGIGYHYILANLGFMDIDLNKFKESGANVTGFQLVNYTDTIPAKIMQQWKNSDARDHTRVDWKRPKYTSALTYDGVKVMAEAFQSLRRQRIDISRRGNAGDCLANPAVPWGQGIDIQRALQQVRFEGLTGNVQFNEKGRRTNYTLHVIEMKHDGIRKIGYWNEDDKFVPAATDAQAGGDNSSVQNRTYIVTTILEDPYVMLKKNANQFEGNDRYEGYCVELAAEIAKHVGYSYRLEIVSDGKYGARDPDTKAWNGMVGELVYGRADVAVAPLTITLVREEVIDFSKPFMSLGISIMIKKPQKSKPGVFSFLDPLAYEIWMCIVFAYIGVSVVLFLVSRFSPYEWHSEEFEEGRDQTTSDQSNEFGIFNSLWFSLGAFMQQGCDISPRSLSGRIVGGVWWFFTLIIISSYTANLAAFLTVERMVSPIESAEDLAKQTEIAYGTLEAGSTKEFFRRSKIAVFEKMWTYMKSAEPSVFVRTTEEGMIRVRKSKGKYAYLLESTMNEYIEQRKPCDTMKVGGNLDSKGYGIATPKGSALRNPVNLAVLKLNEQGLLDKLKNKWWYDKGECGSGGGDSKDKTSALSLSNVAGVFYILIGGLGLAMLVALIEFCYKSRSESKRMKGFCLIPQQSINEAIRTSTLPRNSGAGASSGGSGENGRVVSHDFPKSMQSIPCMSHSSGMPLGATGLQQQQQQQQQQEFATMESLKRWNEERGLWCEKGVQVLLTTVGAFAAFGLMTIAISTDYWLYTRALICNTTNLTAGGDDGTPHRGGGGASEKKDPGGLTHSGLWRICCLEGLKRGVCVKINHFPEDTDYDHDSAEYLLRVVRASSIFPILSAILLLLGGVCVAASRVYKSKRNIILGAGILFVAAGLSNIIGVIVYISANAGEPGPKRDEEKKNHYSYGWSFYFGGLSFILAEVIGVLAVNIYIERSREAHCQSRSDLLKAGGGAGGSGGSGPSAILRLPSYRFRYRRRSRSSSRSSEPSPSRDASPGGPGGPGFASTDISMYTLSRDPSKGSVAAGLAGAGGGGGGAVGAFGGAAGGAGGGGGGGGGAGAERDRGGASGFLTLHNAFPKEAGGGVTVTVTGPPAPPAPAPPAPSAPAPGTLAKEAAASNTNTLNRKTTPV
row,Structure (SMILES),IC50 [nM]
1,"COc1ccc2nc(-c3ccccc3)n(-c3ccc4[nH]c(=O)sc4c3)c2n1 [Example 18, 6-(5-Methoxy-2-phenyl-imidazo[4,5-b]pyridin-3-yl)-3H-1,3-benzothiazol-2-one]",3.98
2,"CC(C)(C)c1nc2ccc(C(F)(F)F)nc2n1-c1ccc2[nH]c(=O)sc2c1 [Example 19, 6-[2-tert-Butyl-5-(trifluoromethyl)imidazo[4,5-b]pyridin-3-yl]-3H-1,3-benzothiazol-2-one]",1.26
3,"O=c1[nH]c2ccc(-n3c(-c4ccc(F)cc4)nc4cccnc43)cc2s1 [Example 20, 6-[2-(4-Fluorophenyl)imidazo[4,5-b]pyridin-3-yl]-3H-1,3-benzothiazol-2-one]",5.01
4,"O=c1[nH]c2ccc(-n3c(-c4ccc(F)cc4)nc4cccnc43)cc2[nH]1 [Example 21, 5-[2-(4-Fluorophenyl)imidazo[4,5-b]pyridin-3-yl]-1,3-dihydrobenzimidazol-2-one]",10
5,"Fc1ccc(-c2nc3cccnc3n2-c2ccc3[nH]ncc3c2)cc1 [Example 22, 2-(4-Fluorophenyl)-3-(1H-indazol-5-yl)imidazo[4,5-b]pyridine]",31.6
6,"O=C1Cc2cc(-n3c(-c4ccc(F)cc4)nc4cccnc43)ccc2N1 [Example 23, 5-[2-(4-Fluorophenyl)imidazo[4,5-b]pyridin-3-yl]indolin-2-one]",25.1
7,"O=c1[nH]c2ccc(-n3c(-c4ccc(F)cc4)nc4cccnc43)cc2o1 [Example 24, 6-[2-(4-Fluorophenyl)imidazo[4,5-b]pyridin-3-yl]-3H-1,3-benzoxazol-2-one]",316
8,"O=c1[nH]c2ccc(-n3c(-c4ccccc4)nc4cccnc43)cc2s1 [Example 25, 6-(2-Phenylimidazo[4,5-b]pyridin-3-yl)-3H-1,3-benzothiazol-2-one]",10
9,"c1ccc(-c2nc3cccnc3n2-c2ccc3[nH]ccc3c2)cc1 [Example 26, 3-(1H-Indol-5-yl)-2-phenyl-imidazo[4,5-b]pyridine]",501
10,"Cc1ccc2nc(-c3ccc(F)cc3)n(-c3ccc4[nH]c(=O)sc4c3)c2n1 [Example 27, 6-[2-(4-Fluorophenyl)-5-methyl-imidazo[4,5-b]pyridin-3-yl]-3H-1,3-benzothiazol-2-one]",0.794
11,"O=c1[nH]c2ccc(-n3c(-c4ccc(F)nc4)nc4cccnc43)cc2s1 [Example 28, 6-[2-(6-Fluoro-3-pyridyl)imidazo[4,5-b]pyridin-3-yl]-3H-1,3-benzothiazol-2-one]",251
12,"Cc1ccc2nc(-c3ccnc(F)c3)n(-c3ccc4[nH]c(=O)sc4c3)c2n1 [Example 29, 6-[2-(2-Fluoro-4-pyridyl)-5-methyl-imidazo[4,5-b]pyridin-3-yl]-3H-1,3-benzothiazol-2-one]",2.51
13,"O=C1Cc2cc(-n3c(-c4ccccc4)nc4cccnc43)ccc2N1 [Example 34, 5-(2-Phenylimidazo[4,5-b]pyridin-3-yl)indolin-2-one]",12.6
14,"Cc1ccc2nc(-c3ccc(F)cc3)n(-c3ccc4c(c3)CC(=O)N4)c2n1 [Example 35, 5-[2-(4-Fluorophenyl)-5-methyl-imidazo[4,5-b]pyridin-3-yl]indolin-2-one]",3.16
15,"O=C1Cc2cc(-n3c(-c4ccc(F)cc4)nc4ccc(F)nc43)ccc2N1 [Example 37, 5-[5-Fluoro-2-(4-fluorophenyl)imidazo[4,5-b]pyridin-3-yl]indolin-2-one]",6.31
16,"CC(C)c1nc2ccc(C(F)(F)F)nc2n1-c1ccc2c(c1)CC(=O)N2 [Example 38, 5-[2-Isopropyl-5-(trifluoromethyl)imidazo[4,5-b]pyridin-3-yl]indolin-2-one]",1
17,"O=c1[nH]c2ccc(-n3c(C4CCOCC4)nc4ccc(C(F)(F)F)nc43)cc2s1 [Example 42, 6-[2-Tetrahydropyran-4-yl-5-(trifluoromethyl)imidazo[4,5-b]pyridin-3-yl]-3H-1,3-benzothiazol-2-one]",39.8
18,"FC(F)(F)c1ccc2nc(C3CC3)n(-c3ccc4[nH]ncc4c3)c2n1 [Example 43, 2-Cyclopropyl-3-(1H-indazol-5-yl)-5-(trifluoromethyl)imidazo[4,5-b]pyridine]",2
19,"Cc1nc2ccc(C(F)(F)F)nc2n1-c1ccc2[nH]c(=O)sc2c1 [Example 46, 6-[2-Methyl-5-(trifluoromethyl)imidazo[4,5-b]pyridin-3-yl]-3H-1,3-benzothiazol-2-one]",6.31
20,"Cc1nc2ccc(C(F)(F)F)nc2n1-c1ccc2c(c1)CC(=O)N2 [Example 47, 5-[2-Methyl-5-(trifluoromethyl)imidazo[4,5-b]pyridin-3-yl]indolin-2-one]",63.1
21,"O=C1Cc2cc(-n3c(C4CCCCC4)nc4ccc(C(F)(F)F)nc43)ccc2N1 [Example 48, 5-[2-Cyclohexyl-5-(trifluoromethyl)imidazo[4,5-b]pyridin-3-yl]indolin-2-one]",0.631

# Second part, the molecule after the results:
row,IC50 [nM],Structure (SMILES)
1,0.631,"O=c1[nH]c2ccc(-n3c(-c4ccc(F)cc4)nc4ccc(C(F)(F)F)nc43)cc2s1 [Example 16, 6-[2-(4-Fluorophenyl)-5-(trifluoromethyl)imidazo[4,5-b]pyridin-3-yl]-3H-1,3-benzothiazol-2-one]"
2,0.501,"Cc1ccc2nc(-c3ccccc3)n(-c3ccc4[nH]c(=O)sc4c3)c2n1 [Example 17, 6-(5-Methyl-2-phenyl-imidazo[4,5-b]pyridin-3-yl)-3H-1,3-benzothiazol-2-one]"
3,0.2,"O=c1[nH]c2ccc(-n3c(-c4ccc(F)cc4)nc4ccc(Cl)nc43)cc2s1 [Example 30, 6-[5-Chloro-2-(4-fluorophenyl)imidazo[4,5-b]pyridin-3-yl]-3H-1,3-benzothiazol-2-one]"
4,0.251,"O=c1[nH]c2ccc(-n3c(-c4ccnc(F)c4)nc4ccc(C(F)(F)F)nc43)cc2s1 [Example 31, 6-[2-(2-Fluoro-4-pyridyl)-5-(trifluoromethyl)imidazo[4,5-b]pyridin-3-yl]-3H-1,3-benzothiazol-2-one]"
5,0.501,"O=c1[nH]c2ccc(-n3c(-c4ccccc4)nc4ccc(Br)nc43)cc2s1 [Example 32, 6-(5-Bromo-2-phenyl-imidazo[4,5-b]pyridin-3-yl)-3H-1,3-benzothiazol-2-one]"
6,0.631,"O=C1Cc2cc(-n3c(-c4ccc(F)cc4)nc4ccc(C(F)(F)F)nc43)ccc2N1 [Example 33, 5-[2-(4-Fluorophenyl)-5-(trifluoromethyl)imidazo[4,5-b]pyridin-3-yl]indolin-2-one]"
7,0.398,"O=C1Cc2cc(-n3c(-c4ccccc4)nc4ccc(C(F)(F)F)nc43)ccc2N1 [Example 36, 5-[2-Phenyl-5-(trifluoromethyl)imidazo[4,5-b]pyridin-3-yl]indolin-2-one]"
8,0.2,"O=c1[nH]c2ccc(-n3c(C4CCCC4)nc4ccc(C(F)(F)F)nc43)cc2s1 [Example 39, 6-[2-Cyclopentyl-5-(trifluoromethyl)imidazo[4,5-b]pyridin-3-yl]-3H-1,3-benzothiazol-2-one]"
9,0.158,"O=c1[nH]c2ccc(-n3c(C4CCCCC4)nc4ccc(C(F)(F)F)nc43)cc2s1 [Example 40, 6-[2-Cyclohexyl-5-(trifluoromethyl)imidazo[4,5-b]pyridin-3-yl]-3H-1,3-benzothiazol-2-one]"
10,0.398,"O=c1[nH]c2ccc(-n3c(C4CC4)nc4ccc(C(F)(F)F)nc43)cc2s1 [Example 41, 6-[2-Cyclopropyl-5-(trifluoromethyl)imidazo[4,5-b]pyridin-3-yl]-3H-1,3-benzothiazol-2-one]"
11,0.398,"CCc1nc2ccc(C(F)(F)F)nc2n1-c1ccc2[nH]c(=O)sc2c1 [Example 44, 6-[2-Ethyl-5-(trifluoromethyl)imidazo[4,5-b]pyridin-3-yl]-3H-1,3-benzothiazol-2-one]"
12,0.398,"CC(C)c1nc2ccc(C(F)(F)F)nc2n1-c1ccc2[nH]c(=O)sc2c1 [Example 45, 6-[2-Isopropyl-5-(trifluoromethyl)imidazo[4,5-b]pyridin-3-yl]-3H-1,3-benzothiazol-2-one]"
13,0.316,"O=C1Cc2cc(-n3c(C4CCC4)nc4ccc(C(F)(F)F)nc43)ccc2N1 [Example 49, 5-[2-Cyclobutyl-5-(trifluoromethyl)imidazo[4,5-b]pyridin-3-yl]indolin-2-one]"
